{"source": "patent US20230248659A1", "about": "“IMMUNE SUPPRESSING NANOPARTICLES FOR ROBUST SENSITIZATION OF DRUG-RESISTANT CANCER” (King Abdulaziz City for Science and Technology ( KACST), priority 2021, published 2023)", "test_system": "MDA-MB-231 cells", "assay": "LPS-mediated DOX resistance, AlamarBlue cell viability assay", "format": "cell-based", "conditions": "Homo sapiens", "description": "LPS ability to mediate DOX-resistance was examined to simulate the MDR phenotype of MDA-MB-231. Herein, there is compared the sensitivity of non-stimulated MDA-MB-231 cells and LPS-stimulated cells at an optimized migratory concentration of LPS (20 µg/mL) to DOX treatment. AlamarBlue cell viability assay was used to evaluate the ability of LPS activation to induce DOX resistance. […] On the contrary, LPS-stimulated cells were 64±4% viable after 24 hr of DOX-treatment. Remarkably, pretreatment with LPS for 24 hr was clearly able to reduce chemosensitivity, lessen DOX cytotoxicity, and increase cell survival approximately to 6-fold (p-value <0.0005) after 48 hr treatment. These quantitative results provide strong evidence of inflammation-based MDR mechanism specifically to DOX treatment in MDA-MB-231 cells.\nMDA-MB-231 cells were plated out in 96-well tissue culture plates at 1 ×10^4 cells per well and treated with or without LPS at concentration of (20 µg/mL) for 24 hr. Cells were then left untreated or treated simultaneously with (0.67 µg/mL) of the chemotherapeutic drug (DOX) and various doses of CS-TPP-HA-AGP NPs (50, 100, and 300 µg/ml). After further incubation for 48 or 72 hr, Cells were subjected to AlamarBlue cell viability assay. […] Fluorescence spectra were recorded at λex:550, λem:600 using BioTek Cytation 5™ multi-mode Microplate Reader-Gen5™ software.", "note": "Read-outs that look alike come from different tables or passages of the source."}
{"smiles": "COc1cccc2c1C(=O)c1c(O)c3c(c(O)c1C2=O)C[C@@](O)(C(=O)CO)C[C@@H]3O[C@H]1C[C@H](N)[C@H](O)[C@H](C)O1", "note": "[DOX, doxorubicin]", "values": [{"measurement": "viability at 0.67 µg/mL", "setting": "MDA-MB-231, 24 h, read-out: cell viability", "result": "64 ± 4", "unit": "%"}, {"measurement": "viability at 0.67 µg/mL", "setting": "MDA-MB-231, read-out: cell viability", "result": "11 ± 10", "unit": "%"}]}
